Reference: patent US9340577B2, “HLA binding motifs and peptides and their uses” (priority 1992, dated 2016)
pIC50: −log10 of the molar value. No end group written: not given here.

Columns and labels:
Assay in all cases: biochemical
DRB1*1101 = DRB1*1101 (Homo sapiens, UniProt P01903+P01911, A100R/A169T/A87E/I96F/K41T/L162R/M171V/P40S/Q125H/Q178H/Q39Y/Q99D/R42S/S66Y/T262R/V115G/W38E)
DR7 (DRB1*0701) = DR7 (DRB1*0701) (Homo sapiens, UniProt P01903+P01911, A100R/A102G/A103Q/D57E/D86V/E43K/F76Y/K127E/L162R/M171V/P40G/Q125H/Q99D/R33Q/R42Y/R54Q/S133A/S66F/T210M/V115G/Y107V/Y59L/Y89S); type: binding
DRB1*1201 = DRB1*1201 (Homo sapiens, UniProt P01903+P01911, A100R/A169T/D57E/D86V/F55L/H45Y/K41T/L162R/M171V/P40S/Q125H/Q178H/Q39Y/Q99D/R42G/S66L/T262R/V114A/V67L/W38E/Y59H/Y61H/Y89S); type: binding
DRB1*1302 = DRB1*1302 (Homo sapiens, UniProt P01903+P01911, A100E/A169T/K41T/L162R/M171V/P40S/Q125H/Q178H/Q39Y/Q99D/R42S/S66N/T262R/V115G/W38E/Y61H); type: binding
DRB3*0101 = DRB3*0101 (Homo sapiens, UniProt P01903+P79483); type: binding
DRB5*0101 = DRB5*0101 (Homo sapiens, UniProt P01903+Q30154)
DRB1*1501 = DRB1*1501 (Homo sapiens, UniProt P01903+P01911); type: binding
DR1 (DRB1*0101) = DR1 (DRB1*0101) (Homo sapiens, UniProt P01903+P01911, A100R/D57E/F55L/F60I/F76Y/I96L/L162R/M171V/P40L/Q125E/R42F/V115G/Y59C); type: binding
DRB1*0802 = DRB1*0802 (Homo sapiens, UniProt P01903+P01911, A100R/A103L/A169T/F76Y/H45Y/I96F/K41T/L162R/M171V/P40S/Q125H/Q178H/Q39Y/Q99D/R218S/R42G/S66Y/V115G/W38E); type: binding
DR4w4 (DRB1*0401) = DR4w4 (DRB1*0401) (Homo sapiens, UniProt P01903+P01911, A100K/A169T/F76Y/I96L/K127E/L162R/M171V/N62H/P40V/Q125Y/R42H/S133A/S149N/S66Y/V115G/V209L/W38E); type: binding
DRB1*0901 = DRB1*0901 (Homo sapiens, UniProt P01903+P01911, A100R/A103E/D57H/D86V/F55Y/F60I/F76Y/I96F/K127E/L162R/M171V/P40D/Q125H/Q99R/R33Q/R42F/S133A/S66N/T210M/V115G/W38K/Y107V/Y59G/Y89S); type: binding
DRB4*0101 = DRB4*0101 (Homo sapiens, UniProt P01903+P13762, G164S); type: binding
DRB1*0405 = DRB1*0405 (Homo sapiens, UniProt P01903+P01911, A100R/A169T/D86S/F76Y/I96L/K127E/L162R/M171V/N62H/P40V/Q125Y/R42H/S133A/S149N/S66Y/V115G/V209L/W38E); type: binding

DRB1*1101, sequence (P01903 26-254 limits assumed, other chains not shown): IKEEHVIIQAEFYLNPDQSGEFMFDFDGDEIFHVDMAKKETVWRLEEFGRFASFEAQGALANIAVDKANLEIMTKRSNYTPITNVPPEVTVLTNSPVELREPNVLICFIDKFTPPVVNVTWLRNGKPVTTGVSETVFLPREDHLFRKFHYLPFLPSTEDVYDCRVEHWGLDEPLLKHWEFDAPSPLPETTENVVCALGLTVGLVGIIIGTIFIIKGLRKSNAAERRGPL
DRB1*1302, sequence (P01903 26-254 limits assumed, other chains not shown): as above

Compound | pIC50 (DRB1*1101; Binding affinity DRB1 *1101) | pIC50 (DR7 (DRB1*0701)) | pIC50 (DRB1*1201) | pIC50 (DRB1*1302) | pIC50 (DRB3*0101) | pIC50 (DRB5*0101; Binding affinity DRB5 *0101) | pIC50 (DRB1*1501) | pIC50 (DR1 (DRB1*0101)) | pIC50 (DRB1*0802) | pIC50 (DR4w4 (DRB1*0401)) | pIC50 (DRB1*0901) | pIC50 (DRB4*0101) | pIC50 (DRB5*0101; DRB5*0101) | pIC50 (DRB1*1101; DRB1*1101) | pIC50 (DRB1*0405)
TNKFSGYPLYHSVYE [Peptide 68.0116] | < 4.70 | < 4.70 | 5.35 | < 4.70 | < 4.70 |  |  |  |  |  |  |  |  |  | 
GNEIFNTSLFEPPPP [Peptide 68.0090] | < 4.70 | < 4.70 | < 4.70 |  | < 4.70 | < 4.70 | < 4.70 | < 4.70 | < 4.70 |  |  |  |  |  | 
VILLGRHSLFHPEDT [Peptide 68.0068] |  | < 4.70 | 7.25 |  | < 4.70 |  |  |  |  |  |  |  |  |  | 
RVPVSHSFPHPLYNM [Peptide 68.0006] | < 4.70 |  |  |  | < 4.70 |  |  |  | < 4.70 | < 4.70 |  |  |  |  | 
CC[C@H](C)[C@H](NC(=O)[C@@H](N)CCC(=O)O)C(=O)N[C@H](C(=O)N[C@@H](CC(C)C)C(=O)N[C@@H](Cc1c[nH]cn1)C(=O)N[C@@H](CC(C)C)C(=O)N[C@@H](CCC(=O)O)C(=O)N1CCC[C@H]1C(=O)N[C@@H](CCC(N)=O)C(=O)N[C@@H](CC(N)=O)C(=O)N[C@@H](CCC(=O)O)C(=O)N[C@@H](CC(C)C)C(=O)N[C@@H](CC(=O)O)C(=O)N1CCC[C@H]1C(=O)N[C@H](C(=O)O)C(C)C)C(C)C [Peptide 1543.20] | < 4.70 |  | < 4.70 |  | < 4.70 | < 4.70 | < 4.70 |  | < 4.70 |  | < 4.70 |  |  |  | 
CC[C@H](C)[C@H](NC(=O)[C@@H](NC(=O)[C@H](Cc1c[nH]cn1)NC(=O)[C@@H](N)CCCNC(=N)N)C(C)C)C(=O)N[C@@H](Cc1ccc(O)cc1)C(=O)N[C@@H](C)C(=O)N1CCC[C@H]1C(=O)N[C@@H](CO)C(=O)N[C@@H](CO)C(=O)N[C@@H](Cc1c[nH]cn1)C(=O)N[C@@H](CC(N)=O)C(=O)N[C@@H](CCCCN)C(=O)N[C@@H](Cc1ccc(O)cc1)C(=O)N[C@@H](C)C(=O)NCC(=O)O [Peptide 68.0133] |  | < 4.70 | 5.15 |  | < 4.70 |  |  |  |  |  |  |  |  |  | 
GIVEQTTTSITSLYQ [Peptide 9000.0054] |  |  |  | 7.85 | < 4.02 |  | 6.07 |  |  |  |  | 5.64 | < 4.42 | < 4.98 | 
CC[C@H](C)[C@H](NC(=O)[C@H](CO)NC(=O)[C@H](CC(C)C)NC(=O)[C@@H](NC(=O)[C@H](CC(C)C)NC(=O)[C@@H](N)CC(=O)O)C(C)C)C(=O)N[C@@H](C)C(=O)N[C@@H](CC(C)C)C(=O)N[C@@H](CO)C(=O)N[C@H](C(=O)NCC(=O)N[C@@H](CS)C(=O)N[C@H](C(=O)NCC(=O)N[C@@H](C)C(=O)O)[C@@H](C)O)C(C)C [Peptide 68.0002] | < 4.70 |  | 5.31 |  | < 4.70 | < 4.70 |  |  | < 4.70 |  |  |  |  |  | 
CC[C@H](C)[C@H](N)C(=O)N[C@@H](Cc1ccc(O)cc1)C(=O)N[C@@H](CO)C(=O)N[C@H](C(=O)N[C@@H](CO)C(=O)N[C@@H](CCSC)C(=O)N[C@@H](CCCCN)C(=O)N[C@@H](Cc1c[nH]cn1)C(=O)N1CCC[C@H]1C(=O)N[C@@H](CCC(N)=O)C(=O)N[C@@H](CCC(=O)O)C(=O)N[C@@H](CCSC)C(=O)N[C@@H](CCCCN)C(=O)N[C@H](C(=O)N[C@@H](Cc1ccc(O)cc1)C(=O)O)[C@@H](C)O)[C@@H](C)CC [Peptide 68.0126] |  |  | 4.94 | < 4.70 | < 4.70 |  |  |  |  |  |  |  |  |  | 
CC[C@H](C)[C@H](NC(=O)[C@@H](NC(=O)[C@@H]1CCCN1C(=O)CNC(=O)[C@@H](NC(=O)[C@H](CC(C)C)NC(=O)[C@H](CCC(=O)O)NC(=O)[C@H](C)NC(=O)[C@@H](N)Cc1ccccc1)C(C)C)C(C)C)C(=O)N1CCC[C@H]1C(=O)N[C@@H](CCC(N)=O)C(=O)N[C@@H](CC(=O)O)C(=O)N[C@@H](Cc1c[nH]c2ccccc12)C(=O)N[C@@H](CO)C(=O)N[C@H](C(=O)O)[C@@H](C)O [Peptide 68.0056] | < 4.70 | < 4.70 |  | < 4.70 | < 4.70 | < 4.70 | < 4.70 |  | < 4.70 |  | < 4.70 |  |  |  | 
LDHYENDSKDINSQI [Peptide 1601.29] | < 4.70 | 4.70 |  | < 4.70 | 5.69 | < 4.70 | < 4.70 | < 4.70 | < 4.70 | < 4.70 | < 4.70 | 6.26 |  |  | < 4.70
CC[C@H](C)[C@H](NC(=O)[C@@H]1CCCN1C(=O)[C@H](Cc1c[nH]cn1)NC(=O)[C@@H](NC(=O)[C@@H]1CCCN1C(=O)[C@@H](NC(=O)[C@H](CO)NC(=O)[C@@H]1CCCN1C(=O)[C@H](CC(C)C)NC(=O)CNC(=O)[C@@H](NC(=O)[C@H](C)NC(=O)[C@H](CCC(=O)O)NC(=O)[C@H](C)N)C(C)C)[C@@H](C)CC)C(C)C)C(=O)NCC(=O)O [Peptide 68.0101] | < 4.70 |  | 6.15 |  | < 4.70 | < 4.70 |  |  | < 4.70 |  | < 4.70 |  |  |  | 
EISFAGIVTKLPTAN [Peptide 89.0174] | < 4.70 | 5.11 |  |  | 7.15 |  | 5.09 | 4.73 | 4.95 |  | < 4.70 | < 4.70 |  |  | < 4.70
ADKIYSISMKHPQEM [Peptide 68.0125] |  |  | 5.03 |  | < 4.70 | < 4.70 |  | < 4.70 |  |  |  |  |  |  | 
DFEVFFQRLGIASGR [Peptide 68.0114] |  | < 4.70 | 5.70 |  | < 4.70 |  |  |  |  |  |  |  |  |  | 
NMSLLKHQSLRPDED [Peptide 68.0009] | < 4.70 | < 4.70 |  | < 4.70 | < 4.70 | < 4.70 | < 4.70 |  | < 4.70 | < 4.70 | < 4.70 |  |  |  | 
HPLYNMSLLKHQSLR [Peptide 68.0008] |  |  | 7.02 |  | < 4.70 |  |  |  |  |  |  |  |  |  | 
PHPLYNMSLLKHQSL [Peptide 68.0007] |  | < 4.70 | 6.07 |  | < 4.70 |  |  |  |  |  |  |  |  |  | 
CC(C)C[C@H](NC(=O)[C@H](CCC(=O)O)NC(=O)[C@H](CCCCN)NC(=O)[C@H](C)NC(=O)[C@H](CC(C)C)NC(=O)[C@@H](NC(=O)[C@H](CO)NC(=O)[C@H](CCCNC(=N)N)NC(=O)[C@@H](N)CC(=O)O)C(C)C)C(=O)N[C@@H](CCCCN)C(=O)N[C@@H](Cc1ccccc1)C(=O)N[C@H](C(=O)N[C@H](C(=O)N[C@@H](CC(C)C)C(=O)N[C@H](C(=O)O)C(C)C)[C@@H](C)O)C(C)C [Peptide 68.0024] | < 4.70 |  | 6.52 |  | < 4.70 |  |  |  |  |  |  |  |  |  | 
YDPLYCESVHNFTLP [Peptide 68.0041] | < 4.70 |  | < 4.70 | < 4.70 | < 4.70 | < 4.70 |  |  | < 4.70 |  |  |  |  |  | 
LETIYNSQYSNEKWT [Peptide 1601.03] | < 4.70 | < 4.70 |  | 5.17 | < 4.70 | 6.68 | 6.25 | 5.07 | < 4.70 | 7.00 | 5.22 |  |  |  | 5.52
